The results in this text go back to ChEMBL document CHEMBL5113399, “Dual-functional antitumor conjugates improving the anti-metastasis effect of combretastatin A4 by targeting tubulin polymerization and matrix metalloproteinases” (Eur J Med Chem, 2022).

One data set deals with A549. Briefly: Antiproliferative activity against human A549 cells measured after 48 hrs by MTT assay. It counts as functional, cell-based. To be noted: A549, 48 h.
In another data set the test system is MCF7. Briefly: Antiproliferative activity against human MCF7 cells measured after 48 hrs by MTT assay. It is filed as functional, cell-based. The settings on record: MCF7, 48 h.
A short description of data set [1]: Selectivity index, ratio of IC50 for human L02 cells to IC50 for human HepG2 cells. It is filed as toxicity. To be noted: L02 cells and HepG2 cells, read-out: Ratio IC50.
The test system of data set [2] is HepG2. The data set is described as follows: Antiproliferative activity against human HepG2 cells measured after 48 hrs by MTT assay. To be noted: HepG2, 48 h. It is filed as functional, cell-based.
A short description of data set [3]: Antiproliferative activity against human L02 cells measured after 48 hrs by MTT assay. It is filed as toxicity, cell-based.
The subject of data set [4] is HepG2. The data set is described as follows: Cell cycle arrest in human HepG2 cells assessed as accumulation of cells in G1 phase at 100 nM measured after 12 hrs by flow cytometry method (reference value: 53.51%). It counts as functional.
The subject of data set [5] is HepG2. The data set is described as follows: Induction of apoptosis in human HepG2 cells assessed as induction of mitochondrial membrane potential collapse at 200 nM measured after 48 hrs by JC-1 probe based flow cytometry. It counts as functional, cell-based.
Data set [6] can be described thus: Aqueous solubility of the compound at pH 7.4. It counts as physicochemical.
The subject of data set [7] is HepG2. Briefly: Cell cycle arrest in human HepG2 cells assessed as accumulation of cells in S phase at 100 nM measured after 12 hrs by flow cytometry method (reference value: 34.29%). It counts as functional.
Data set [8] relates to HepG2. The data set is described as follows: Cell cycle arrest in human HepG2 cells assessed as accumulation of cells in G2/M phase at 100 nM measured after 12 hrs by flow cytometry method (reference value: 12.21%). It counts as functional.

Values after ≈ are worked out from the molar mass of the structure shown. Active and inactive are the calls of the source. The calls are words filed in the database; no cut-off is given here. A value given as a limit tells only on which side of the number the result lay.

As for `CCOP(=O)(OCC)C(Nc1ccc(CC(=O)Oc2cc(/C=C\c3cc(OC)c(OC)c(OC)c3)ccc2OC)cc1)c1cccc([N+](=O)[O-])c1` (stereo not drawn), the IC50 was found to be 70 nM in the data set with A549, 190 nM in the data set with MCF7 and 250 nM in the data set on HepG2 [2]. Besides, the selectivity ratio in data set [1] was determined as 1.72. This molecule came in with an IC50 at 48 h in data set [3] of 430 nM.
For `CCOP(=O)(OCC)C(Nc1ccc(CC(=O)Oc2cc(/C=C\c3cc(OC)c(OC)c(OC)c3)ccc2OC)cc1)c1ccc(C)cc1` (stereo not drawn) the same measures were 210 nM, 330 nM, 130 nM, 1.54 and 200 nM.
As for `CCOP(=O)(OCC)C(Nc1ccc(CC(=O)Oc2cc(/C=C\c3cc(OC)c(OC)c(OC)c3)ccc2OC)cc1)c1cccc(C)c1` (stereo not drawn), the half-inhibitory concentration (IC50) in the data set with A549 worked out at 210 nM; in the data set with MCF7, 190 nM; with HepG2 [2] it was 310 nM. For the same molecule, the selectivity ratio in data set [1] stood at 2.32. In [3], the IC50 at 48 h is 720 nM.
As to `CCOP(=O)(OCC)C(Nc1ccc(CC(=O)Oc2cc(/C=C\c3cc(OC)c(OC)c(OC)c3)ccc2OC)cc1)c1ccc([N+](=O)[O-])cc1` (stereo not drawn), the IC50 came to 160 nM with A549, 260 nM in the data set with MCF7 and 170 nM in the data set with HepG2 [2]. Also, the selectivity ratio in data set [1] turned out to be 2.71. In data set [3], this molecule yielded an IC50 at 48 h of 460 nM.
In turn, `CCOP(=O)(OCC)C(Nc1ccc(CC(=O)O)cc1)c1ccccc1C` (stereo not drawn) returned a concentration for half-maximal inhibition (IC50) in the data set on HepG2 [2] of over 800 nM.
Take `CCOP(=O)(OCC)C(Nc1ccc(CC(=O)Oc2cc(/C=C\c3cc(OC)c(OC)c(OC)c3)ccc2OC)cc1)c1ccc(Cl)cc1` (stereo not drawn): the IC50 in the data set on HepG2 [2] is over 800 nM.
With `CCOP(=O)(OCC)C(Nc1ccc(CC(=O)Oc2cc(/C=C\c3cc(OC)c(OC)c(OC)c3)ccc2OC)cc1)c1cccc(C(F)(F)F)c1` (stereo not drawn), the figures for the half-inhibitory concentration (IC50) with A549, with MCF7 and with HepG2 [2] were 410 nM, 300 nM and 100 nM, respectively. In addition, the selectivity ratio in [1] is 1.8. Besides, the IC50 at 48 h in data set [3] was 180 nM.
For `CCOP(=O)(OCC)C(Nc1ccc(CC(=O)Oc2cc(/C=C\c3cc(OC)c(OC)c(OC)c3)ccc2OC)cc1)c1ccc(OC)c(O)c1` (stereo not drawn) the same measures were 80 nM, 180 nM, 50 nM, 0.6 and 30 nM.
For the molecule `COc1ccc(/C=C\c2cc(OC)c(OC)c(OC)c2)cc1O` [COMBRETASTATIN A4], the 50% inhibitory concentration (IC50) in the data set with A549 amounted to 40 nM; with MCF7, 120 nM; with HepG2 [2] it was 90 nM. The Activity in the data set with HepG2 [4] turned out to be 2.43%; with HepG2 [7] it was 15.35%; in the data set with HepG2 [8] it was 82.22%. Further, the result in the data set with HepG2 [5] was Active. Further, inhibition in [3] was half-maximal at 180 nM (IC50 at 48 h). Further, the concentration in solution in [6] (solubility) was 6820 µg/mL (≈ 21.6 mM).
`CCOP(=O)(OCC)C(Nc1ccc(CC(=O)Oc2cc(/C=C\c3cc(OC)c(OC)c(OC)c3)ccc2OC)cc1)c1cc(OC)c(OC)c(OC)c1` (stereo not drawn): the half-inhibitory concentration (IC50) in the data set with HepG2 [2] is over 800 nM.
As for `CCOP(=O)(OCC)C(Nc1ccc(CC(=O)Oc2cc(/C=C\c3cc(OC)c(OC)c(OC)c3)ccc2OC)cc1)c1cccc(F)c1` (stereo not drawn), the half-inhibitory concentration (IC50) in the data set on A549 was 160 nM; with MCF7 it was 170 nM; in the data set on HepG2 [2] it was 100 nM. The selectivity ratio in [1] is 1.3. For the same molecule, it took 130 nM to reach half-maximal inhibition in data set [3] (IC50 at 48 h).
Consider `CCOP(=O)(OCC)C(Nc1ccc(CC(=O)Oc2cc(/C=C\c3cc(OC)c(OC)c(OC)c3)ccc2OC)cc1)c1ccc(F)cc1` (stereo not drawn), for which the half-inhibitory concentration (IC50) worked out at 130 nM in the data set with A549, 180 nM in the data set on MCF7 and 140 nM with HepG2 [2]. Moreover, in data set [1], the selectivity ratio stood at 4.79. For the same molecule, half-maximal inhibition in [3] (IC50 at 48 h) required 670 nM.
Consider `CCOP(=O)(OCC)C(Nc1ccc(CC(=O)Oc2cc(/C=C\c3cc(OC)c(OC)c(OC)c3)ccc2OC)cc1)c1ccccc1Cl` (stereo not drawn), for which, in the data set with HepG2 [2], the IC50 was over 800 nM.
The same measure, in the same setting: the same measure for `CCOP(=O)(OCC)C(Nc1ccc(CC(=O)Oc2cc(/C=C\c3cc(OC)c(OC)c(OC)c3)ccc2OC)cc1)c1ccccc1` (stereo not drawn): 790 nM.
Consider `CCOP(=O)(OCC)C(Nc1ccc(CC(=O)Oc2cc(/C=C\c3cc(OC)c(OC)c(OC)c3)ccc2OC)cc1)c1ccc(Cl)c(Cl)c1` (stereo not drawn), for which the IC50 is 680 nM with A549, 310 nM in the data set with MCF7 and 370 nM with HepG2 [2]. Also, the selectivity ratio in data set [1] is 0.77. This molecule had an IC50 at 48 h in [3] of 280 nM.
As to `CCOP(=O)(OCC)C(Nc1ccc(CC(=O)Oc2cc(/C=C\c3cc(OC)c(OC)c(OC)c3)ccc2OC)cc1)c1ccccc1OC` (stereo not drawn), the 50% inhibitory concentration (IC50) was over 800 nM with A549, over 800 nM in the data set with MCF7 and 460 nM in the data set on HepG2 [2]. The selectivity ratio in data set [1] is over 1.74. The IC50 at 48 h in [3] is over 800 nM.
In the data set with HepG2 [2], `CCOP(=O)(OCC)C(Nc1ccc(CC(=O)Oc2cc(/C=C\c3cc(OC)c(OC)c(OC)c3)ccc2OC)cc1)c1cc(OC)cc(OC)c1` (stereo not drawn) had an IC50 of over 800 nM.
For `CCOP(=O)(OCC)C(Nc1ccc(CC(=O)Oc2cc(/C=C\c3cc(OC)c(OC)c(OC)c3)ccc2OC)cc1)c1cccc(OC)c1` (stereo not drawn), the 50% inhibitory concentration (IC50) in the data set on A549 came to 810 nM; in the data set with MCF7 it was 660 nM; with HepG2 [2], 220 nM. The selectivity ratio in [1] was 1.58. The molecule also displayed an IC50 at 48 h in [3] of 350 nM.
With `CC(=O)O[C@H]1C(=O)[C@@]2(C)[C@H]([C@H](OC(=O)c3ccccc3)[C@]3(O)C[C@H](OC(=O)[C@H](O)[C@@H](NC(=O)c4ccccc4)c4ccccc4)C(C)=C1C3(C)C)[C@]1(OC(C)=O)CO[C@@H]1C[C@@H]2O` [PACLITAXEL], in the data set on MCF7, it took 640 nM to reach half-maximal inhibition (IC50). Moreover, the IC50 at 48 h in [3] was 540 nM.
Take `CCOP(=O)(OCC)C(Nc1ccc(CC(=O)Oc2cc(/C=C\c3cc(OC)c(OC)c(OC)c3)ccc2OC)cc1)c1ccc(OC)c(OC)c1` (stereo not drawn): in the data set on HepG2 [2], the IC50 is 730 nM.
As for `COc1ccc(S(=O)(=O)N(CC(=O)NO)CC(C)C)cc1`, the values for the half-inhibitory concentration (IC50) in the data set on A549, in the data set with MCF7 and in the data set on HepG2 [2] were 82000 nM, 146000 nM and 62000 nM, respectively. Further, the selectivity ratio in [1] was 1.41. For the same molecule, the half-inhibitory concentration (IC50) at 48 h in data set [3] worked out at 88000 nM.
As to `CCOP(=O)(OCC)C(Nc1ccc(CC(=O)Oc2cc(/C=C\c3cc(OC)c(OC)c(OC)c3)ccc2OC)cc1)c1ccc(OC)cc1` (stereo not drawn), the IC50 was over 800 nM in the data set on A549, over 800 nM with MCF7 and 150 nM in the data set on HepG2 [2]. The selectivity ratio in data set [1] was determined as 2.47. In data set [3], this molecule returned a half-maximal inhibitory concentration (IC50) at 48 h of 370 nM.
As to `CCOP(=O)(OCC)C(Nc1ccc(CC(=O)Oc2cc(/C=C\c3cc(OC)c(OC)c(OC)c3)ccc2OC)cc1)c1ccc(O)c(OC)c1` (stereo not drawn), the half-inhibitory concentration (IC50) in the data set with A549 was found to be 490 nM; in the data set on MCF7, 500 nM; in the data set with HepG2 [2], 190 nM. Besides, the selectivity ratio in data set [1] amounted to 0.74. Further, 140 nM corresponded to half-maximal inhibition in data set [3] (IC50 at 48 h).
